Source: PubChem BioAssay (NCI)
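Interpolation was linear, between the two tested concentrations surrounding the appropriate level; five concentrations were tested over 48 hours in 96-well plates. TGI is the concentration that stops growth completely.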

Columns and labels:
Experiment in all cases: DTP human tumour cell line panel, 48 h
SR leukemia = tested on: SR leukemia
TK-10 renal = tested on: TK-10 renal
786-0 renal = tested on: 786-0 renal
SNB-75 CNS = tested on: SNB-75 CNS
RXF 393 renal = tested on: RXF 393 renal
COLO 205 colon = tested on: COLO 205 colon
NCI-H226 lung = tested on: NCI-H226 lung
UO-31 renal = tested on: UO-31 renal
NCI-H23 lung = tested on: NCI-H23 lung
HS 578T breast = tested on: HS 578T breast
PC-3 prostate = tested on: PC-3 prostate
A498 renal = tested on: A498 renal
UACC-257 melanoma = tested on: UACC-257 melanoma
NCI/ADR-RES ovarian = tested on: NCI/ADR-RES ovarian
SK-MEL-2 melanoma = tested on: SK-MEL-2 melanoma
MCF7 breast = tested on: MCF7 breast
KM12 colon = tested on: KM12 colon
BT-549 breast = tested on: BT-549 breast
SW-620 colon = tested on: SW-620 colon
SK-OV-3 ovarian = tested on: SK-OV-3 ovarian
IGROV1 ovarian = tested on: IGROV1 ovarian
SK-MEL-5 melanoma = tested on: SK-MEL-5 melanoma
SF-539 CNS = tested on: SF-539 CNS
K-562 leukemia = tested on: K-562 leukemia
MOLT-4 leukemia = tested on: MOLT-4 leukemia
LOX IMVI melanoma = tested on: LOX IMVI melanoma
MDA-MB-231 breast = tested on: MDA-MB-231 breast
MDA-MB-435 = tested on: MDA-MB-435
NCI-H522 lung = tested on: NCI-H522 lung
U251 CNS = tested on: U251 CNS
UACC-62 melanoma = tested on: UACC-62 melanoma
SF-268 CNS = tested on: SF-268 CNS
SNB-19 CNS = tested on: SNB-19 CNS
HL-60(TB) leukemia = tested on: HL-60(TB) leukemia
MALME-3M melanoma = tested on: MALME-3M melanoma
A549 NSCLC = tested on: A549 NSCLC
SN12C renal = tested on: SN12C renal
SF-295 CNS = tested on: SF-295 CNS
OVCAR-5 ovarian = tested on: OVCAR-5 ovarian
CCRF-CEM leukemia = tested on: CCRF-CEM leukemia
NCI-H460 lung = tested on: NCI-H460 lung
HOP-92 NSCLC = tested on: HOP-92 NSCLC
CAKI-1 renal = tested on: CAKI-1 renal
T-47D breast = tested on: T-47D breast
MDA-N = tested on: MDA-N
HCT-116 colon = tested on: HCT-116 colon
HCT-15 colon = tested on: HCT-15 colon
HOP-62 NSCLC = tested on: HOP-62 NSCLC
RPMI-8226 leukemia = tested on: RPMI-8226 leukemia
OVCAR-3 ovarian = tested on: OVCAR-3 ovarian
HT29 colon = tested on: HT29 colon
SK-MEL-28 melanoma = tested on: SK-MEL-28 melanoma
DU-145 prostate = tested on: DU-145 prostate
M14 melanoma = tested on: M14 melanoma
ACHN renal = tested on: ACHN renal
EKVX NSCLC = tested on: EKVX NSCLC
OVCAR-8 ovarian = tested on: OVCAR-8 ovarian
OVCAR-4 ovarian = tested on: OVCAR-4 ovarian

Measured: TGI

N/C(=N\N=C\c1nc2ccccc2o1)c1cnccn1
42.8 µM: SNB-75 CNS
4.38 µM: MALME-3M melanoma
> 100 µM: all other assays above
